Experimental findings from patent US9388163B2, “Multifunctional radical quenchers for the treatment of mitochondrial dysfunction” (Arizona Board of Regents, a Body Corporate of the State of …, priority 2011, dated 2016) are described below.

The structures appear in SMILES notation.

The test system of one assay is CEM leukemia cells. Put plainly: Suppression of ROS production (DCFH-DA, flow cytometry) in DEM-treated cells. It is filed as cell-based. Conditions: CEM cells treated with DEM, untreated control 100, treated control 0. As for the experimental part: (§1) Leukemic CEM cells (ATCC®, catalogue number CRL-2264) were cultured in RPMI (GIBCO, Grand island, NY, USA) with 10% FBS (Fisher Scientific, TX, USA), 2 mM glutamine (HyClone, South Logan, Utah, USA) and 1% penicillin-streptomycin mix antibiotics (Cellgro, Manassas, Va., USA) supplements. Cells were maintained in the log phase at a concentration of between 1×10^5 and 1×10^6 cells/mL.
Cellular ROS production can be monitored using 2′,7′-dichlorodihydrofluorescein diacetate (DCFH-DA) (LeBel et al. (1992) Chem. Res. Toxicol. 5, 227-231) (Molecular Probes, Eugene, Oreg., USA), a membrane permeable and oxidant-sensitive fluorescent dye. DCFH-DA is a non-fluorescent derivative of fluorescein that emits fluorescence after being oxidized by hydrogen peroxide and other ROS. The emitted fluorescence is directly proportional to the concentration of hydrogen peroxide. DCFH-DA is nonionic and nonpolar and is easily taken up by cells. Once inside the cell, DCFH-DA is hydrolyzed by cellular esterases to non-fluorescent DCFH which traps the dye in the cell. In the presence of ROS including hydrogen peroxide, DCFH is oxidized to the highly fluorescent compound dichlorofluorescein (DCF). The intracellular DCF fluorescence is used as an index of cellular ROS production.
Cellular oxidative stress was induced by pharmacological depletion of glutathione (GSH) using the chemical diethylmaleate (DEM). […] The compounds tested were prepared by first making stock solutions (1 mM) in dimethylsulfoxide (DMSO). Cells were treated with 5 mM DEM for 30 minutes and collected by centrifugation at 300×g for 3 min and then washed twice with Phosphate Buffer Saline (PBS) (Invitrogen, N.Y., USA). Cells were re-suspended in PBS buffer+10 mM glucose and incubated at 37° C. in the dark for 20 min with 10 μM DCFH-DA. Cells were collected by centrifugation at 300×g for 3 min and then washed twice with PBS buffer. The samples were analyzed immediately by flow cytometry (Becton-Dickinson FACS Caliber), (Cell Quest software, BD Biosciences) using 488 nm excitation laser and FL1-H channel 538 nm emission filter. In each analysis, 10,000 events were recorded after cell debris were electronically gated out. Results obtained were verified by running duplicates and repeating experiments N=3 independent experiments. Authentic hydrogen peroxide was used as a positive control.

The next assay relates to leukemia CEM lymphocytes. Put plainly: Suppression of lipid peroxidation (C11-BODIPY 581/591, FACS) in DEM-treated cells. It is filed as cell-based. To be noted: CEM cells treated with DEM, untreated control 100, treated control 0. The procedure: as §1
Measurement of C11-BODIPY^581/591 Oxidation in Cell Culture
Lipid peroxidation in cells was detected by utilizing the oxidant-sensitive lipophilic probe C11 BODIPY^581/591. […] Cells were treated with 500 nM C11 BODIPY^581/591 in phenol red-free RPMI-1640 media and incubated at 37° C. in the dark for 30 minutes. The cells were washed twice with phosphate buffered saline and oxidative stress was induced with 5 mM DEM in phenol red-free RPMI-1640 media for 90 minutes. Treated cells were collected by centrifugation at 300×g for 3 minutes and then washed twice with phosphate buffered saline. Cells were re-suspended in 250 μL of phosphate buffered saline and were analyzed by FACS (FACS Calibur flow cytometer, Becton Dickinson) to monitor the change in intensity of the C11 BODIPY^581/591 green (oxidized) fluorescence signal.

Another assay deals with FRDA cell line. The experiment in a line: Trypan blue exclusion cell viability assay, DEM-stressed cells. To be noted: FRDA cells stressed with DEM. It is filed as cell-based. As for the experimental part:
Friedreich's Ataxia lymphocytes and control cells (Coriell, catalogue number […], respectively) were cultured in RPMI (GIBCO, Grand island, NY, USA) with 15% FBS (Fisher Scientific, TX, USA), 2 mM glutamine (HyClone, South Logan, Utah, USA) and 1% penicillin-streptomycin mix antibiotics (Cellgro, Manassas, Va., USA) supplements. Cells were maintained in the log phase at a concentration of between 1×10^5 and 1×10^6 cells/mL.
V. Trypan Blue Cell Viability Assay
Cell viability determined by trypan blue exclusion assay: This technique was used to assess the cytoprotective effects of the invention compounds in cultured cells pharmacologically treated to induce cell death by GSH depletion. DEM was used to deplete cellular GSH and induce oxidative stress. The viability of DEM-treated cells was determined by their ability to exclude the dye trypan blue. Viable cells exclude trypan blue; whereas, non-viable cells take up the dye and stain blue. Briefly, cells were seeded at a density of 1×10^6 cells/mL and treated with different concentrations of the invention compounds. Cells were incubated at 37° C. in a humidified atmosphere of 5% CO2 in air for three hours with 5 mM DEM. Cell viability was determined by staining cells with 0.4% trypan blue using a hemocytometer. At least 500 cells were counted for each experimental group. At the time of assay, >95% of DEM-treated cells were trypan blue positive; whereas, in non-DEM treated control cell cultures >95% cells were viable. Cell viability was expressed as the percentage of control. Data are expressed as means±S.E.M (n=3).

The subject of assay [1] is bovine heart mitochondrial complex (I, III, IV). Put plainly: NADH oxidase inhibition assay (beef heart submitochondrial particles). It is filed as biochemical. As for the experimental part:
X. NADH Oxidase Inhibition Assay
Beef heart mitochondria were obtained by a large-scale procedure. Inverted submitochondrial particles (SMP) were prepared by the method of Matsuno-Yagi and Hatefi (J. Biol. Chem. 260 (1985), p. 14424), and stored in a buffer containing 0.25 M sucrose and 10 mM Tris-HCl (pH 7.4) at −80° C. Inhibitory effects of compounds on bovine heart mitochondrial complex (I, III, IV) were evaluated. Maximal dimethyl sulfoxide concentration never exceeded 2% and had no influence on the control enzymatic activity. Beef heart SMP were diluted to 0.5 mg/mL. The enzymatic activities were assayed at 30° C. and monitored spectrophotometrically with a Beckman Coulter DU-530 (340 nm, ε=6.22 mM^−1 cm^−1). NADH oxidase activity was determined in a reaction medium (2.5 mL) containing 50 mM Hepes, pH 7.5, containing 5 mM MgCl2. The final mitochondrial protein concentration was 30 μg/mL. After the pre-equilibration of SMP with inhibitor for 5 min, the initial rates were calculated from the linear portion of the traces.

The test system of a further assay is FRDA lymphocyte. Put plainly: Mitochondrial bioenergetics assessment: total cellular ATP content. It is filed as cell-based. To be noted: for cellular ATP levels: after forty hours, at lower concentration (FIG. 3). As for the experimental part: XI. Mitochondrial Bioenergetics Assessment
The use of CoQ10 analogues and methylene blue analogues to normalize and restore the respiratory chain activities provides valuable therapeutic approach for mitochondrial diseases. The reductions of mitochondrial respiratory chain activity in Friedreich ataxia (FRDA) patients have been reported. The efficiency of oxidative phosphorylation was evaluated in FRDA lymphocyte (GM15850) in presence of tested CoQ10 analogues and methylene blue analogues by measuring total cellular ATP content using (ViaLight®-Plus ATP monitoring reagent kit, Lonza).
FRDA lymphocyte cell lines were obtained from Coriell Cell Repositories. FRDA lymphocytes were cultured under glucose-free media supplemented with galactose for two weeks to force energy production predominantly through oxidative phosphorylation rather than glycolysis. Lymphocytes were cultured in RPMI 1640 medium glucose-free supplemented with 25 mM galactose, 2 mM glutamine and 1% penicillin-streptomycin, and 10%, dialyzed fetal bovine serum FBS (<0.5 μg/mL). Briefly, lymphocytes (2×10^5 cell/mL), were plated (1 mL in 12-well plates) and treated with the test compounds at final concentrations of 50, 125. […] Cells were transferred (100 μL) to 96-well microtiter black-walled cell culture plates. The total intracellular ATP level was measured in a luminator (Clarity™ luminescence microplate reader) with the ATP Bioluminescence Assay Kit (ViaLight®-Plus ATP monitoring reagent kit, Lonza) following the manufacturer's instructions. Carbonyl cyanide-p-trifluormethoxy-phenylhydrazone (FCCP) and oligomycin were used as control for inhibition of ATP synthesis.

As a reminder, the viability is a read-out of living cells in per cent, often relative to untreated cells. The low end stands for a greater loss of cells, the high end for better survival. For the compound `C=Cc1c(C)n(O)c(C)c(CCCCCCCCCCCCCCCC)c1=O` [CPD-2, 3-hexadecyl-1-hydroxy-2,6-dimethyl-5-vinylpyridin-4(1H)-one], the “% of scavenging activity (ROS)” value with CEM leukemia cells (0.25 μM) is on record as 31.1 ± 1.3%; in the assay with CEM leukemia cells (2.5 μM), 25.3 ± 5.2%; in the assay with CEM leukemia cells (10 μM) it was 35.2 ± 3.9%. The “Scavenging activity (%) (lipid peroxidation)” value (“Scavenging activity (%)” below) in the assay with leukemia CEM lymphocytes (1 μM) is on record as 7 ± 2.8%; in the assay on leukemia CEM lymphocytes (2.5 μM) it was 13 ± 4.2%; with leukemia CEM lymphocytes (5 μM) it was 0%. In the assay with FRDA cell line, this compound returned a viability at 0.1 µM of 10 ± 3%. The viability at 0.5 µM with FRDA cell line is 14 ± 5%. Further, in the assay with FRDA cell line, the viability at 2.5 µM worked out at 15 ± 4%. The “NADH oxidase (complex I, III, IV) activity (%)” value (“NADH oxidase … (%)” for short) in assay [1] (5 μM compound) turned out to be 12 ± 0.8%; in assay [1] (10 μM compound), 11.9 ± 1.6%; in assay [1] (l μM compound) it was 20.1 ± 1.4%.
Regarding `C=Cc1c(C)n(O)c(C)c(CCCCCCC)c1=O` [CPD-1, 3-heptyl-1-hydroxy-2,6-dimethyl-5-vinylpyridin-4(1H)-one], the “% of scavenging activity (ROS)” value in the assay with CEM leukemia cells (0.25 μM) turned out to be 23.4 ± 1.6%; with CEM leukemia cells (2.5 μM), 22.2 ± 3.5%; in the assay on CEM leukemia cells (10 μM), 20.0 ± 4.4%. Further, the “Scavenging activity (%)” value with leukemia CEM lymphocytes (1 μM), with leukemia CEM lymphocytes (2.5 μM) and with leukemia CEM lymphocytes (5 μM) was 0% each time. The compound also showed a viability at 0.1 µM with FRDA cell line of 25 ± 6%. This compound also showed a viability at 0.5 µM with FRDA cell line of 42 ± 3%. For the same compound, the viability at 2.5 µM in the assay with FRDA cell line was found to be 30 ± 6%. Moreover, the results for the “NADH oxidase … (%)” value in assay [1] (5 μM compound), in assay [1] (10 μM compound) and in assay [1] (l μM compound) were 20.7 ± 2.2%, 13.2 ± 1^ % and 29.7 ± 3.8%, respectively.
Take `CN(C)c1ccc2nc3ccc(=[N+](C)C)cc-3sc2c1` [methylene blue, reference compound]: in the assay with FRDA lymphocyte, the “cellular ATP levels” value is “significantly increased cellular ATP levels”.
On to `CCCCCCCCCCCCCCCCc1c(C)n(O)c(C)c(N)c1=O` [CPD-4, 3-amino-5-hexadecyl-1-hydroxy-2,6-dimethylpyridin-4(1H)-one], for which the “% of scavenging activity (ROS)” value in the assay on CEM leukemia cells (0.25 μM) was 41.4 ± 14.9%; with CEM leukemia cells (2.5 μM) it was 81.8 ± 3.7%; with CEM leukemia cells (10 μM), 91.0 ± 1.5%. Further, the “Scavenging activity (%)” value with leukemia CEM lymphocytes (1 μM) is 18 ± 2.2%; in the assay with leukemia CEM lymphocytes (2.5 μM), 52 ± 1.5%; in the assay on leukemia CEM lymphocytes (5 μM), 94 ± 0.2%. This compound also had a viability at 0.1 µM in the assay on FRDA cell line of 17 ± 5%. The compound further came in with a viability at 0.5 µM in the assay on FRDA cell line of 21 ± 9%. The viability at 2.5 µM in the assay with FRDA cell line is 35 ± 9%. Moreover, the “NADH oxidase … (%)” value in assay [1] (5 μM compound) is listed as 12.7 ± 1.7%; in assay [1] (10 μM compound) it was 10.7 ± 1.3%; in assay [1] (l μM compound), 17.1 ± 1^ %.
For `CCCCCCCc1c(C)n(O)c(C)c(N)c1=O` [CPD-3, 3-amino-5-heptyl-1-hydroxy-2,6-dimethylpyridin-4(1H)-one], the “% of scavenging activity (ROS)” value is 4.6 ± 5.4% in the assay with CEM leukemia cells (0.25 μM), 42.2 ± 2.9% in the assay on CEM leukemia cells (2.5 μM) and 67.0 ± 5.9% in the assay on CEM leukemia cells (10 μM). Further, the “Scavenging activity (%)” value with leukemia CEM lymphocytes (1 μM) was 14 ± 4.1%; in the assay with leukemia CEM lymphocytes (2.5 μM), 20 ± 5.4%; in the assay with leukemia CEM lymphocytes (5 μM), 9.6 ± 2.8%. Also, the viability at 0.1 µM in the assay with FRDA cell line stood at 19 ± 6%. The viability at 0.5 µM in the assay on FRDA cell line came out at 19 ± 3%. In the assay on FRDA cell line, this compound gave a viability at 2.5 µM of 25 ± 5%. For the same compound, the “NADH oxidase … (%)” value in assay [1] (5 μM compound) was determined as 76.7 ± 6.9%; in assay [1] (10 μM compound), 70.4 ± 5.5%; in assay [1] (l μM compound), 92.9 ± 10.9%.
Take `CN(C)c1ccc2nc3ccc(=O)cc-3sc2c1` [CPD-18, 7-(dimethylamino)-3H-phenothiazin-3-one]: the “cellular ATP levels” value with FRDA lymphocyte is “significantly increased cellular ATP levels”. For the same compound, the “maintaining ATP levels, compared with methylene blue” value with FRDA lymphocyte (at higher concentrations) was “superior to methylene blue”.
As for `CCCCCCCc1c(C)n(O)c(C)c(OC)c1=O` [CPD-5, 3-heptyl-1-hydroxy-5-methoxy-2,6-dimethylpyridin-4(1H)-one], the entries for the “% of scavenging activity (ROS)” value in the assay on CEM leukemia cells (0.25 μM), in the assay with CEM leukemia cells (2.5 μM) and with CEM leukemia cells (10 μM) were 21.0 ± 5.5%, 26.4 ± 4.4% and 0 ± 10%, respectively. Besides, the “Scavenging activity (%)” value turned out to be 11 ± 1.8% with leukemia CEM lymphocytes (1 μM), 16 ± 1.8% with leukemia CEM lymphocytes (2.5 μM) and 2.2 ± 2.3% in the assay with leukemia CEM lymphocytes (5 μM). Moreover, in the assay on FRDA cell line, the viability at 0.1 µM was 12 ± 6%. The compound also had a viability at 0.5 µM with FRDA cell line of 17 ± 7%. In the assay on FRDA cell line, the viability at 2.5 µM was found to be 14 ± 3%. Also, the “NADH oxidase … (%)” value in assay [1] (5 μM compound) is 44.5 ± 3.6%; in assay [1] (10 μM compound), 33.5 ± 2.2%; in assay [1] (l μM compound) it was 74.5 ± 6.9%.
